# In patent US20020183519A1, “Antithrombotic carboxylic acid amides” (priority 2001, published 2002):
# Biological target: T1, human factor Xa (Homo sapiens, UniProt P00742)
# T1 construct: released from the colourless chromogenic substrate by human factor Xa; purchased Roche
# Experiment: Inhibition of factor Xa, enzyme-kinetic measurement with chromogenic substrate
# Assay type: biochemical
# Settings: human factor Xa (Roche) 0.175 U/ml, substrate Chromozym X 200 μMol/l, pH 8.0, 37° C., 405 nm
# Description: Method: Enzyme-kinetic measurement with chromogenic substrate. The quantity of p-nitroaniline (pNA) released from the colourless chromogenic substrate by human factor Xa is determined photometrically at 405 nm. It is proportional to the activity of the enzyme used. The inhibition of the enzyme activity by the test substance (in relation to the solvent control) is determined at various concentrations of test substance and from this the IC50 is calculated, as the concentration which inhibits the factor Xa used by 50%.
# Material: Tris(hydroxymethyl)-aminomethane buffer (100 mmol) and sodium chloride (150 mmol), pH 8.0
# Factor Xa (Roche), spec. activity: 10 U/0.5 ml, final concentration: 0.175 U/ml for each reaction mixture
# Substrate Chromozym X (Roche), final concentration: 200 μMol/l for each reaction mixture
# Procedure: 10 μl of a 23.5-times concentrated starting solution of the test substance or solvent (control), 175 μl of tris(hydroxymethyl)-aminomethane buffer and 25 μl of a 1.65 U/ml Factor Xa working solution are incubated for 10 minutes at 37° C. After the addition of 25 μl of Chromozym X working solution ([…]) the sample is measured in a photometer (SpectraMax 250) at 405 nm for 150 seconds at 37° C.
# 1. Determining the maximum increase (deltaOD/minutes) over 3 measuring points.
# 2. Determining the % inhibition based on the solvent control.
# 3. Plotting a dosage/activity curve (% inhibition vs substance concentration).
# 4. Determining the IC50 by interpolating the X value (substance concentration) of the dosage/activity curve at Y=50% inhibition.
# T1 sequence (P00742 235-488 limits assumed): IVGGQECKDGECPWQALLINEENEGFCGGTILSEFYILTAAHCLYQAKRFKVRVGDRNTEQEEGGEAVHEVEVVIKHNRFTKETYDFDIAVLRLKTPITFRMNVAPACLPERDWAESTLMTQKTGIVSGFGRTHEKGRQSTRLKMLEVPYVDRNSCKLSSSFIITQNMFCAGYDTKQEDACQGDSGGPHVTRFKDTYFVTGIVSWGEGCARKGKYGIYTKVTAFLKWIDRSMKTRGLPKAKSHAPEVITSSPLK
# T1 sequence (P00742 41-179 partner limits assumed): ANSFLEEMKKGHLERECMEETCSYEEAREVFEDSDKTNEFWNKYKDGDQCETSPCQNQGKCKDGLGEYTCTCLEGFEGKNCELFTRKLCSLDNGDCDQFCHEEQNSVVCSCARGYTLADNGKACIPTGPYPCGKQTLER
row,SMILES,IC50
1,Cc1cc(NC(=O)Cc2cc(C(=N)N)ccc2O)ccc1-n1c(N2CCCC2)nc2ccccc21 [(1)],0.14 µM
2,Cc1cc(NC(=O)Cc2cc(C(=N)N)ccc2O)ccc1-n1cnc2c1CCCC2 [(2)],0.081 µM
3,Cc1cc(NC(=O)Cc2cc(C(=N)N)ccc2O)ccc1-c1ncnc2c1CCC2 [(3)],0.062 µM
4,CCOC(=O)CC(NC(=O)c1ccc(-n2cnc3c2CCCC3)c(C(F)(F)F)c1)c1cccc(C(=N)N)c1 (stereo not drawn) [(8)],0.028 µM
5,COC(=O)c1nn(-c2ccc(C(=O)NCc3cc(C(=N)N)ccc3O)cc2C(F)(F)F)c2c1CCC2 [(9)],0.024 µM

# Now those with a lower IC50, led by results:
row,IC50,SMILES
1,0.016 µM,CNC(=O)c1nn(-c2ccc(C(=O)NCc3cc(C(=N)N)ccc3O)cc2C(F)(F)F)c2c1CCC2 [(5)]
2,0.015 µM,Cc1nn(-c2ccc(C(=O)NCc3cc(C(=N)N)ccc3O)cc2C(F)(F)F)c2c1CCC2 [(4)]
3,0.0075 µM,CCOC(=O)CC(NC(=O)c1ccc(-n2nc(CN)c3c2CCC3)c(C(F)(F)F)c1)c1cccc(C(=N)N)c1 (stereo not drawn) [(7)]
4,0.007 µM,N=C(N)c1ccc(O)c(CNC(=O)c2ccc(-n3nc(CN)c4c3CCC4)c(C(F)(F)F)c2)c1 [(6)]
